Assay results published in patent US20240189283A1, “L-ERGOTHIONEINE-CONTAINING COMPOSITION” (NAGASE & CO., LTD., priority 2021, published 2024).
Like-named read-outs stand apart in the source and are kept apart here.

Columns and labels:
[1] = system: mouse bone marrow-derived macrophages; details: cited from earlier work; for production of cytokines (IL-6, IL-12p40, IL-1β, IL-10): toll-like receptor ligand stimulation
[2] = HPLC area of SRH, SRH dehydrated dimer and EGT before and 4 days after concentration (Reference Example); format: physicochemical; details: sample with 15 parts by mass SRH per 100 parts EGT, PDA 210 nm; for HPLC area, 4 days after concentration: concentrated at 30° C., left at room temperature 4 days
Experimental: In an SRH 0.108 w/w % aqueous solution (1 mL) was dissolved 7.1 mg of EGT (manufactured by Tetrahedron) to prepare a sample having 15 parts by mass of SRH with respect to 100 parts by mass of EGT.
For HPLC analysis, 100 μL of the sample was diluted 10 times with water. The remaining 900 μL was concentrated under reduced pressure using an evaporator at 30° C. After the mixture was left to stand at room temperature for 4 days, the mixture was dissolved in 0.9 mL of water. For HPLC analysis, 100 μL of the solution was diluted 10 times with water.
HPLC analysis was performed under the following conditions.
Column: YMC-Pack ODS-AQ S-5 μM, 12 nm, 250×4.6 mm I.D.
Flow rate: 0.5 mL/min, Temperature: 30° C.
Eluent: 0.1% aqueous formic acid solution
Retention time: SRH: around 6.6 minutes; SRH dehydrated dimer: around 7.5 minutes; EGT: around 8.7 minutes.

[3] = system: OT-II CD4+ T cells; details: 30 mM EGT; co-culture with F4/80 macrophages; cited from earlier work
[4] = system: Escherichia coli; details: EGT at 5 mM and 50 mM; cited from earlier work

HPLC area, before concentration [2]	HPLC area, 4 days after concentration [2]	SMILES	production of cytokines (IL-6, IL-12p40, IL-1β, IL-10) ([1]; 1 mM EGT)	production of cytokines (IL-6, IL-12p40, IL-1β, IL-10) ([1]; 10 mM EGT)	concentration that activates macrophages [1] [mM]	Th17 polarization of OT-II CD4+ T cells [3]	growth of Escherichia coli [4]
13959268	14131254	C[N+](C)(C)[C@@H](Cc1c[nH]c(=S)[nH]1)C(=O)[O-] [EGT, N,N,N-trimethyl-L-2-thiohistidine]	not	promoted	≥ 10	promoted	suppresses the growth
156690	108189	N[C@@H](CCSC1O[C@H](CO)[C@@H](O)[C@H]1O)C(=O)O (stereo partly drawn) [SRH, S-ribosylhomocysteine]	–	–	–	–	–
